Key:
[1] = target: GDP-bound NRAS wild-type protein (Homo sapiens, UniProt P01111); assay: Binding to NRAS by surface plasmon resonance (SPR), KD and KD ratio to KRAS; details: ratio of KD for GDP-bound NRAS wild-type protein to KD for KRAS
How it was run: (§1)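 GDP-bound biotin-Avi RAS captured at ~100–300 RU, 30°C, pH 7.4 HBS containing 10 µM GDP, 10 mM MgCl2, 1 mM DTT, 0.01% Tween 20 and 4% DMSO. KD by 1:1 fitting.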

HRAS wild-type protein = HRAS wild-type protein (Homo sapiens, UniProt P01112); assay: Binding to HRAS by surface plasmon resonance (SPR), KD and KD ratio to KRAS; details: ratio of KD for HRAS wild-type protein to KD for KRAS
How it was run: as §1

[2] = system: human lung cancer strain NCI-H441; type: cell-based
How it was run: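 Readout: […] after the ATP-based reagent. Compound: serial dilutions in dimethyl sulfoxide.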

Chain of GDP-bound NRAS wild-type protein (P01111 whole entry): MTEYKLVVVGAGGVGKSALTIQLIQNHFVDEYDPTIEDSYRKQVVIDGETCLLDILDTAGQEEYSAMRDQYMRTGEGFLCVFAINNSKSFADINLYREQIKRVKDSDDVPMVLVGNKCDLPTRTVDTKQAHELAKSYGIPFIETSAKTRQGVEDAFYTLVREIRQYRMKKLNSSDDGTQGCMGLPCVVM
Chain of HRAS wild-type protein (P01112 whole entry): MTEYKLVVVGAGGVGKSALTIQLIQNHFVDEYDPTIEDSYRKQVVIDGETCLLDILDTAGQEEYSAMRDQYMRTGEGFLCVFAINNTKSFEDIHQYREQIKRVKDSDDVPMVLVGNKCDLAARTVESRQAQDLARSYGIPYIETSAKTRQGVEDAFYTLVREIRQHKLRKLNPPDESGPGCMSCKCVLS

CCO[C@@H]1C[C@H]2C(=O)NC3(CC(C)(C)C3)C(=O)N(C)[C@@H](C3CCCC3)C(=O)N(C)[C@H](C(=O)N3CCCCC3)CC(=O)N(C)[C@H]3CCC/C=C/c4ccc(cc4)C[C@@H](C(=O)N(C)CC(=O)N[C@@H](CCc4ccc(Cl)c(Cl)c4)C(=O)N2C1)N1CC/C=C\C[C@@H](C1=O)N(C)C(=O)CN(C)C(=O)[C@H]([C@@H](C)CC)NC3=O [PP2578]
NRAS /KRAS [1]: AA (a compound having 20 or more is denoted as AA)
HRAS /KRAS (HRAS wild-type protein): A (a compound having 10 or more and less than 20 is denoted as A)
IC50 [2]: 17.7 nM

CCO[C@@H]1C[C@H]2C(=O)NC3(CC(C)(C)C3)C(=O)N(C)[C@@H](C(CC)CC)C(=O)N(C)[C@H](C(=O)N(C)C)CC(=O)N(C)[C@H]3CCC/C=C/c4ccc(cc4)C[C@@H](C(=O)N(C)CC(=O)N[C@@H](CCc4ccc(Cl)c(Cl)c4)C(=O)N2C1)N1CC/C=C\C[C@@H](C1=O)N(C)C(=O)CN(C)C(=O)[C@H]([C@@H](C)CC)NC3=O [PP2580]
NRAS /KRAS [1]: AA (a compound having 20 or more is denoted as AA)
HRAS /KRAS (HRAS wild-type protein): A (a compound having 10 or more and less than 20 is denoted as A)
IC50 [2]: 7.9 nM

CCO[C@@H]1C[C@H]2C(=O)NC3(CC(C)(C)C3)C(=O)N(C)[C@@H](C(CC)CC)C(=O)N(C)[C@H](C(=O)N3CCCC3)CC(=O)N(C)[C@H]3CCC/C=C/c4ccc(cc4)C[C@@H](C(=O)N(C)CC(=O)N[C@@H](CCc4ccc(Cl)c(Cl)c4)C(=O)N2C1)N1CC/C=C\C[C@@H](C1=O)N(C)C(=O)CN(C)C(=O)[C@H]([C@@H](C)CC)NC3=O [PP2581]
NRAS /KRAS [1]: AA (a compound having 20 or more is denoted as AA)
HRAS /KRAS (HRAS wild-type protein): A (a compound having 10 or more and less than 20 is denoted as A)
IC50 [2]: 32.1 nM

CCO[C@@H]1C[C@H]2C(=O)NC3(CC(C)(C)C3)C(=O)N(C)[C@@H](C3CCCC3)C(=O)N(C)[C@H](C(=O)N3CCCC3)CC(=O)N(C)[C@H]3CCC/C=C/c4ccc(cc4)C[C@@H](C(=O)N(C)CC(=O)N[C@@H](CCc4cc(F)c(C(F)(F)F)c(F)c4)C(=O)N2C1)N1CC/C=C\C[C@@H](C1=O)N(C)C(=O)CN(C1CC1)C(=O)[C@H]([C@@H](C)CC)NC3=O [PP2583]
NRAS /KRAS [1]: A (a compound having 10 or more and less than 20 is denoted as A)
HRAS /KRAS (HRAS wild-type protein): A (a compound having 10 or more and less than 20 is denoted as A)
IC50 [2]: 4.1 nM

CCO[C@@H]1C[C@H]2C(=O)NC3(CC(C)(C)C3)C(=O)N(C)[C@@H](C3CCCC3)C(=O)N(C)[C@H](C(=O)N(C)CC)CC(=O)N(C)[C@H]3CCCC/C=C/c4ccc(cc4)C[C@@H](C(=O)N(C)CC(=O)N[C@@H](CCc4ccc(Cl)c(Cl)c4)C(=O)N2C1)N1CC/C=C\C[C@@H](C1=O)N(C)C(=O)CN(C)C(=O)[C@H]([C@@H](C)CC)NC3=O [PP2592]
NRAS /KRAS [1]: A (a compound having 10 or more and less than 20 is denoted as A)
HRAS /KRAS (HRAS wild-type protein): A (a compound having 10 or more and less than 20 is denoted as A)
IC50 [2]: 7.9 nM

CCO[C@@H]1C[C@H]2C(=O)NC3(CC(C)(C)C3)C(=O)N(C)[C@@H](C3CCCC3)C(=O)N(C)[C@H](C(=O)N3CCCC3)CC(=O)N(C)[C@H]3CCCC/C=C/c4ccc(cc4)C[C@@H](C(=O)N(C)CC(=O)N[C@@H](CCc4ccc(Cl)c(Cl)c4)C(=O)N2C1)N1CC/C=C\C[C@@H](C1=O)N(C)C(=O)CN(C)C(=O)[C@H]([C@@H](C)CC)NC3=O [PP2593]
NRAS /KRAS [1]: A (a compound having 10 or more and less than 20 is denoted as A)
HRAS /KRAS (HRAS wild-type protein): A (a compound having 10 or more and less than 20 is denoted as A)
IC50 [2]: 11.5 nM

CCC(CC)[C@H]1C(=O)N(C)[C@H](C(=O)N(C)C)CC(=O)N(C)[C@H]2CCC/C=C/c3ccc(cc3)C[C@@H](C(=O)N(C)CC(=O)N[C@@H](CCc3cc(F)c(C(F)(F)F)c(F)c3)C(=O)N3C[C@H](OC(C)C)C[C@H]3C(=O)NC3(CC(C)(C)C3)C(=O)N1C)N1CC/C=C\C[C@@H](C1=O)N(C)C(=O)CN(C)C(=O)[C@H]([C@@H](C)CC)NC2=O [PP2594]
NRAS /KRAS [1]: A (a compound having 10 or more and less than 20 is denoted as A)
HRAS /KRAS (HRAS wild-type protein): A (a compound having 10 or more and less than 20 is denoted as A)
IC50 [2]: 6 nM

CC[C@H](C)[C@@H]1NC(=O)[C@@H]2CCC/C=C/c3ccc(cc3)C[C@@H](C(=O)N(C)CC(=O)N[C@@H](CCc3ccc(Cl)c(Cl)c3)C(=O)N3C[C@H](OC(C)C)C[C@H]3C(=O)NC3(CC(C)(C)C3)C(=O)N(C)[C@@H](C3CCCC3)C(=O)N(C)[C@H](C(=O)N(C)CC)CC(=O)N2C)N2CC/C=C\C[C@@H](C2=O)N(C)C(=O)CN(C)C1=O [PP2595]
NRAS /KRAS [1]: A (a compound having 10 or more and less than 20 is denoted as A)
HRAS /KRAS (HRAS wild-type protein): B (a compound having 3 or more and less than 10 is denoted as B)
IC50 [2]: 12.7 nM

CC[C@H](C)[C@@H]1NC(=O)[C@@H]2CCC/C=C/c3ccc(cc3)C[C@@H](C(=O)N(C)CC(=O)N[C@@H](CCc3ccc(Cl)c(Cl)c3)C(=O)N3C[C@H](OC(C)C)C[C@H]3C(=O)NC3(CC(C)(C)C3)C(=O)N(C)[C@@H](C3CCCC3)C(=O)N(C)[C@H](C(=O)N3CCCC3)CC(=O)N2C)N2CC/C=C\C[C@@H](C2=O)N(C)C(=O)CN(C)C1=O [PP2596]
NRAS /KRAS [1]: A (a compound having 10 or more and less than 20 is denoted as A)
HRAS /KRAS (HRAS wild-type protein): A (a compound having 10 or more and less than 20 is denoted as A)
IC50 [2]: 13.7 nM

CCO[C@@H]1C[C@H]2C(=O)NC3(CC(C)(C)C3)C(=O)N(C)[C@@H](C3CCCC3)C(=O)N(C)[C@H](C(=O)N3CCCCC3)CC(=O)N(C)[C@H]3CC/C=C/c4ccc(cc4)C[C@@H](C(=O)N(C)CC(=O)N[C@@H](CCc4ccc(Cl)c(Cl)c4)C(=O)N2C1)N1CC/C=C\C[C@@H](C1=O)N(C)C(=O)CN(C)C(=O)[C@H]([C@@H](C)CC)NC3=O [PP2597]
NRAS /KRAS [1]: A (a compound having 10 or more and less than 20 is denoted as A)
HRAS /KRAS (HRAS wild-type protein): A (a compound having 10 or more and less than 20 is denoted as A)
IC50 [2]: 20.1 nM

CCC(CC)[C@H]1C(=O)N(C)[C@H](C(=O)N(C)C)CC(=O)N(C)[C@H]2CCC/C=C/c3ccc(cc3)C[C@@H](C(=O)N(C)CC(=O)N[C@@H](CCc3cc(F)c(C(F)(F)F)c(F)c3)C(=O)N3CCC[C@H]3C(=O)NC3(CC(C)(C)C3)C(=O)N1C)N1CC/C=C\C[C@@H](C1=O)N(C)C(=O)CN(C)C(=O)[C@H]([C@@H](C)CC)NC2=O [PP2600]
NRAS /KRAS [1]: A (a compound having 10 or more and less than 20 is denoted as A)
HRAS /KRAS (HRAS wild-type protein): A (a compound having 10 or more and less than 20 is denoted as A)
IC50 [2]: 2.9 nM

CC[C@H](C)[C@@H]1NC(=O)[C@@H]2CCC/C=C/c3ccc(cc3)C[C@@H](C(=O)N(C)CC(=O)N[C@@H](CCc3ccc(Cl)c(Cl)c3)C(=O)N3CCC[C@H]3C(=O)NC3(CC(C)(C)C3)C(=O)N(C)[C@@H](C3CCCC3)C(=O)N(C)[C@H](C(=O)N(C)CC)CC(=O)N2C)N2CC/C=C\C[C@@H](C2=O)N(C)C(=O)CN(C)C1=O [PP2601]
NRAS /KRAS [1]: A (a compound having 10 or more and less than 20 is denoted as A)
HRAS /KRAS (HRAS wild-type protein): A (a compound having 10 or more and less than 20 is denoted as A)
IC50 [2]: 8.9 nM

CC[C@H](C)[C@@H]1NC(=O)[C@@H]2CCC/C=C/c3ccc(cc3)C[C@@H](C(=O)N(C)CC(=O)N[C@@H](CCc3ccc(Cl)c(Cl)c3)C(=O)N3CCC[C@H]3C(=O)NC3(CC(C)(C)C3)C(=O)N(C)[C@@H](C3CCCC3)C(=O)N(C)[C@H](C(=O)N3CCCC3)CC(=O)N2C)N2CC/C=C\C[C@@H](C2=O)N(C)C(=O)CN(C)C1=O [PP2602]
NRAS /KRAS [1]: A (a compound having 10 or more and less than 20 is denoted as A)
HRAS /KRAS (HRAS wild-type protein): A (a compound having 10 or more and less than 20 is denoted as A)
IC50 [2]: 12.8 nM

CCC(CC)[C@H]1C(=O)N(C)[C@H](C(=O)N(C)C)CC(=O)N(C)[C@H]2CCC/C=C/c3ccc(cc3)C[C@@H](C(=O)N(C)CC(=O)N[C@@H](CCc3ccc(Cl)c(Cl)c3)C(=O)N3CCC[C@H]3C(=O)NC3(CC(C)(C)C3)C(=O)N1C)N1CC/C=C\C[C@@H](C1=O)N(C)C(=O)CN(C)C(=O)[C@H]([C@@H](C)CC)NC2=O [PP2603]
NRAS /KRAS [1]: AA (a compound having 20 or more is denoted as AA)
HRAS /KRAS (HRAS wild-type protein): A (a compound having 10 or more and less than 20 is denoted as A)
IC50 [2]: 25.7 nM

CCC(CC)[C@H]1C(=O)N(C)[C@H](C(=O)N2CCCC2)CC(=O)N(C)[C@H]2CCC/C=C/c3ccc(cc3)C[C@@H](C(=O)N(C)CC(=O)N[C@@H](CCc3ccc(Cl)c(Cl)c3)C(=O)N3CCC[C@H]3C(=O)NC3(CC(C)(C)C3)C(=O)N1C)N1CC/C=C\C[C@@H](C1=O)N(C)C(=O)CN(C)C(=O)[C@H]([C@@H](C)CC)NC2=O [PP2604]
NRAS /KRAS [1]: AA (a compound having 20 or more is denoted as AA)
HRAS /KRAS (HRAS wild-type protein): A (a compound having 10 or more and less than 20 is denoted as A)
IC50 [2]: 20.8 nM

CCO[C@@H]1C[C@H]2C(=O)NC3(CCC3)C(=O)N(C)[C@@H](C3CCCC3)C(=O)N(C)[C@H](C(=O)N(C)C)CC(=O)N(C)[C@@H](CC3CCCC3)C(=O)N[C@@H]([C@@H](C)CC)C(=O)N(C)CC(=O)N(C)[C@H]3C/C=C\CCN(C3=O)[C@@H](Cc3ccc(C)cc3)C(=O)N(C)CC(=O)N[C@@H](CCc3cc(F)c(CC)c(OC)c3)C(=O)N2C1 [PP2674]
NRAS /KRAS [1]: A (a compound having 10 or more and less than 20 is denoted as A)
HRAS /KRAS (HRAS wild-type protein): A (a compound having 10 or more and less than 20 is denoted as A)
IC50 [2]: 48.6 nM

— patent EP4603105A1, “PHARMACEUTICAL COMPOSITION CONTAINING CYCLIC COMPOUND HAVING SELECTIVE KRAS INHIBITORY EFFECT AGAINST HRAS AND NRAS” (CHUGAI SEIYAKU KABUSHIKI KAISHA, priority 2022, dated 2024)
